The values below come from US20260009065A1, “COMPOSITIONS FOR EXPOSING FILM-FORMING MICROBES AND METHODS FOR USE OF THE COMPOSITIONS” (Guild Associates Inc., priority 2022, published 2026).

The test system of assay [1] is S. proteamaculans. Description: Sanitizing agent treatment, single species biofilm controls in multi-species biofilm testing. It counts as cell-based, Serratia proteamaculans. The conditions noted are these: 100 ug/ml BZAC. On the procedure: Multi-species biofilms were screened by treatment with a sanitizing agent to identify species combinations that show heightened resistance. The multi-species biofilm with the most resistance to the sanitizer was used to screen three (3) enzyme combinations for anti-biofilm and bacterial release testing of the six (6) top performing two (2) enzyme combinations tested earlier. Non-nuclease enzymes were tested at two (2) different concentrations. Each three-enzyme combination was also compared to each of the two-enzyme combination core pair to try to identify synergy of the three-enzyme combination over the two-enzyme combination.
(§1) With both growth lifestyles a clear dose response curve is evident.

In assay [2] the test system is S. proteamaculans. In words: Treatment Toxicity Assay (ATP luminescence), planktonic lifestyle. It counts as cell-based, Serratia proteamaculans. The method, then: (§2) Treatment Toxicity: To measure cell toxicity the ATP luminescence of the post-centrifugation cell free supernatants were also determined using the BacTiterGlo Microbial Cell Viability Assay (Promega) and compared to untreated controls to give a percent control value shown. Values over 100% are viewed negatively as potential toxic effects of an enzyme treatment.
as §1

Assay [3] deals with S. proteamaculans. Description: Treatment Toxicity (ATP luminescence of cell free supernatant, BacTiterGlo), biofilm. It counts as cell-based, Serratia proteamaculans. To be noted: for Treatment Toxicity % Ctr: Biofilm Lifestyle. On the procedure: These enzyme combinations were tested for bacterial cell release from enzyme-treated biofilms. Post-enzyme exposure sample overlying solutions were collected and centrifuged to collect bacterial cells released by the enzyme treatment. The supernatants were removed, and the cell pellet resuspended in PBS and ATP luminescence was determined and compared to non-enzyme treated controls. Preferred enzyme pairs were expected to release more cells than untreated controls. Additionally, because maintaining extracted microbe viability was important, the ATP luminescence of the post-centrifugation cell free supernatants were also determined and compared to untreated controls. ATP is normally sequestered inside of cells so the presence of substantially more ATP in the cell free supernatant of enzyme treated biofilms indicates the enzyme treatment may have had toxic effects on the treated bacteria.
as §2, §1

Assay [4] relates to 7-species. Description: Crystal Violet assay, average over the 7 mono-species biofilms. The conditions noted are these: enzyme combined w/nuclease; average over species tested. It counts as cell-based. The method, then:
(§3) Applicant's initial testing was carried out with combinations of two (2) enzymes rather than a single enzyme with a nuclease present in all enzyme combinations. DNase I, a specific commonly utilized DNA nuclease, was selected as a universal enzyme. Both DNase I and other DNA nucleases were compared and formulated to have equivalent activity and then used interchangeably in the research. Nuclease was tested against all seven (7) species at three (3) concentrations and then the most overall effective concentration was used in two (2) enzyme testing. Initial two (2) enzyme testing utilized traditional mono-species biofilms of the 7 species in Table 1. The nuclease was also always tested alone in all experiments allowing some determination of its contribution to the resulting antibiofilm activity. Non-nuclease enzymes were tested at 3 concentrations while the nuclease concentration was held constant. Anti-biofilm activity was measured using the Crystal Violet assay, an easy and ubiquitous assay used for measuring changes in biofilm magnitude in the biofilm research industry.
(§4) The results of the initial two enzyme combination testing using the Crystal Violet assay is given in Table 3 and are given as a percent of the untreated control Crystal Violet signal.

Assay [5] deals with L. plantarum. In words: Crystal Violet assay, two-enzyme treatment of mono-species biofilm. It counts as cell-based, Lactobacillus plantarum. To be noted: enzyme combined w/nuclease; Crystal Violet assay vs untreated control. On the procedure: as §3, §4
In assay [6] the test system is E. coli. Described as above. It counts as cell-based, Escherechia coli O157:H7. To be noted: enzyme combined w/nuclease; Crystal Violet assay vs untreated control. On the procedure:
as §3, §4

Assay [7] concerns L. monocytogenes. Described as above. To be noted: enzyme combined w/nuclease; Crystal Violet assay vs untreated control. It counts as cell-based, Listeria monocytogenes. The method, then:
as §3, §4

The test system of assay [8] is S. proteamaculans biofilms. Description: Crystal Violet assay, enzyme treatment of single species biofilm. It counts as cell-based, Serratia proteamaculans. To be noted: enzyme combined w/nuclease; Crystal Violet assay vs untreated control. On the procedure:
as §3
Therefore, three-enzyme combinations were also tested against single species biofilms of this species.
as §4

For assay [9], the system named is A. JohnsonII. Description: Crystal Violet assay, two-enzyme treatment of mono-species biofilm. It counts as cell-based, Acinetobacter johnsonii. The conditions noted are these: enzyme combined w/nuclease; Crystal Violet assay vs untreated control. The method, then: as §3, §4
Assay [10] relates to S. enterica. The description is as above. It counts as cell-based, Salmonella enterica. To be noted: enzyme combined w/nuclease; Crystal Violet assay vs untreated control. The method, then: as §3, §4

For the substance Benzalkonium chloride [BZAC], in assay [1], the “biofilm reduction by sanitizer treatment” value was “consistently show biofilm reduction”. Also, the “Treatment Toxicity % Ctr” value is recorded as 859.3% Ctr in [2] (1 μg/ml BZAC); 284.9% Ctr in [2] (10 μg/ml BZAC); 724.9% Ctr in assay [2] (100 μg/ml BZAC); 1250.5% Ctr in assay [3] (1 μg/ml BZAC); 150.8% Ctr in assay [3] (10 μg/ml BZAC); 793.3% Ctr in assay [3] (100 μg/ml BZAC). Further, the “cell-free ATP luminescence relative to untreated control biofilms” value in [3] (functionally active concentrations, a representative species) is recorded as “over twelve-fold higher”.
As to Cellulase, the “Biofilm Reduction Due to Enzyme Cocktail Treatment, 7-species average” value in assay [4] was 5%. Moreover, the “Biofilm Reduction Due to Enzyme Cocktail Treatment, L. plantarum” value in [5] was 0%. Also, in assay [6], the “Biofilm Reduction Due to Enzyme Cocktail Treatment, E. coli” value is listed as 0%. Moreover, the “Biofilm Reduction Due to Enzyme Cocktail Treatment, L. monocytogenes” value in assay [7] worked out at 0%. Moreover, the “Biofilm Reduction Due to Enzyme Cocktail Treatment, S. proteamaculens” value in assay [8] is given as 0%. The “Biofilm Reduction Due to Enzyme Cocktail Treatment, A. JohnsonII” value in assay [9] is listed as 22.4%^. Besides, the “Biofilm Reduction Due to Enzyme Cocktail Treatment, S. enterica” value in [10] was 10%.
